What was measured:
Type in all cases: functional
[1] = tested on: Klebsiella pneumoniae; assay: Antimicrobial activity against CMY-2,CTX-M-14,TEM-2-like beta-lactamase producing Klebsiella pneumoniae isolate CUMCK2 by disk diffusion method
[2] = tested on: Escherichia coli; assay: Antimicrobial activity against CMY-2,TEM-2-like beta-lactamase producing Escherichia coli isolate CUMC224 by disk diffusion method
[3] = tested on: Escherichia coli; assay: Antimicrobial activity against CTX-M-15,OXA-30 beta-lactamase producing Escherichia coli isolate CUMC245 by disk diffusion method
[4] = tested on: Escherichia coli; assay: Antimicrobial activity against CMY-2 beta-lactamase producing Escherichia coli isolate CUMC223 by disk diffusion method in presence of beta-lactamase inhibitor clavulanic acid
[5] = tested on: Escherichia coli; assay: Antimicrobial activity against CTX-M-14, TEM-1-like beta-lactamase producing Escherichia coli isolate CUMC241 by disk diffusion method in presence of beta-lactamase inhibitor clavulanic acid
[6] = tested on: Escherichia coli; assay: Antimicrobial activity against CMY-2 beta-lactamase producing Escherichia coli isolate CUMC190 by disk diffusion method
[7] = tested on: Escherichia coli; assay: Antimicrobial activity against CMY-2,CTX-M-14,TEM-2-like beta-lactamase producing Escherichia coli isolate CUMC215 by disk diffusion method in presence of beta-lactamase inhibitor clavulanic acid
[8] = tested on: Escherichia coli; assay: Antimicrobial activity against CTX-M-14, TEM-1-like beta-lactamase producing Escherichia coli isolate CUMC248 by disk diffusion method
[9] = tested on: Escherichia coli; assay: Antimicrobial activity against CTX-M-14, TEM-1 beta-lactamase producing Escherichia coli isolate CUMC174 by disk diffusion method
[10] = tested on: Escherichia coli; assay: Antimicrobial activity against CTX-M-14-like, TEM-1-like beta-lactamase producing Escherichia coli isolate CUMC203 by disk diffusion method
[11] = tested on: Escherichia coli; assay: Antimicrobial activity against CMY-2 beta-lactamase producing Escherichia coli isolate CUMC225 by disk diffusion method in presence of beta-lactamase inhibitor clavulanic acid
[12] = tested on: Escherichia coli; assay: Antimicrobial activity against CMY-2 beta-lactamase producing Escherichia coli isolate CUMC201 by disk diffusion method
[13] = tested on: Klebsiella pneumoniae; assay: Antimicrobial activity against SHV-12-like, SHV-1-like beta-lactamase producing Klebsiella pneumoniae isolate CUMCK9 by disk diffusion method
[14] = tested on: Escherichia coli; assay: Antimicrobial activity against CTX-M-14, TEM-1-like beta-lactamase producing Escherichia coli isolate CUMC180 by disk diffusion method
[15] = tested on: Escherichia coli; assay: Antimicrobial activity against CTX-M-14-like, TEM-1-like beta-lactamase producing Escherichia coli isolate CUMC192 by disk diffusion method in presence of beta-lactamase inhibitor clavulanic acid
[16] = tested on: Escherichia coli; assay: Antimicrobial activity against CTX-M-14-like, TEM-1-like beta-lactamase producing Escherichia coli isolate CUMC204 by disk diffusion method in presence of beta-lactamase inhibitor clavulanic acid
[17] = tested on: Escherichia coli; assay: Antimicrobial activity against CTX-M-14, TEM-1-like beta-lactamase producing Escherichia coli isolate CUMC176 by disk diffusion method
[18] = tested on: Escherichia coli; assay: Antimicrobial activity against CMY-2 beta-lactamase producing Escherichia coli isolate CUMC214 by disk diffusion method
[19] = tested on: Escherichia coli; assay: Antimicrobial activity against CTX-M-15,OXA-30 beta-lactamase producing Escherichia coli isolate CUMC245 by disk diffusion method in presence of beta-lactamase inhibitor clavulanic acid
[20] = tested on: Escherichia coli; assay: Antimicrobial activity against CTX-M-14, TEM-1-like beta-lactamase producing Escherichia coli isolate CUMC176 by disk diffusion method in presence of beta-lactamase inhibitor clavulanic acid
[21] = tested on: Escherichia coli; assay: Antimicrobial activity against CTX-M-14-like, TEM-1-like beta-lactamase producing Escherichia coli isolate CUMC233 by disk diffusion method
[22] = tested on: Escherichia coli; assay: Antimicrobial activity against CMY-2,CTX-M-14,TEM-2-like beta-lactamase producing Escherichia coli isolate CUMC215 by disk diffusion method
[23] = tested on: Escherichia coli; assay: Antimicrobial activity against CMY-2 beta-lactamase producing Escherichia coli isolate CUMC190 by disk diffusion method in presence of beta-lactamase inhibitor clavulanic acid
[24] = tested on: Escherichia coli; assay: Antimicrobial activity against CMY-2 beta-lactamase producing Escherichia coli isolate CUMC223 by disk diffusion method
[25] = tested on: Escherichia coli; assay: Antimicrobial activity against CTX-M-14-like, TEM-1-like beta-lactamase producing Escherichia coli isolate CUMC192 by disk diffusion method
[26] = tested on: Escherichia coli; assay: Antimicrobial activity against CMY-2 beta-lactamase producing Escherichia coli isolate CUMC201 by disk diffusion method in presence of beta-lactamase inhibitor clavulanic acid
[27] = tested on: Escherichia coli; assay: Antimicrobial activity against CMY-2 beta-lactamase producing Escherichia coli isolate CUMC214 by disk diffusion method in presence of beta-lactamase inhibitor clavulanic acid
[28] = tested on: Escherichia coli; assay: Antimicrobial activity against CMY-2 beta-lactamase producing Escherichia coli isolate CUMC181 by disk diffusion method
[29] = tested on: Escherichia coli; assay: Antimicrobial activity against CTX-M-14, TEM-1-like beta-lactamase producing Escherichia coli isolate CUMC244 by disk diffusion method
[30] = tested on: Escherichia coli; assay: Antimicrobial activity against CMY-2 beta-lactamase producing Escherichia coli isolate CUMC243 by disk diffusion method
[31] = tested on: Escherichia coli; assay: Antimicrobial activity against CTX-M-14, TEM-1-like beta-lactamase producing Escherichia coli isolate CUMC180 by disk diffusion method in presence of beta-lactamase inhibitor clavulanic acid
[32] = tested on: Escherichia coli; assay: Antimicrobial activity against CTX-M-14, TEM-1-like beta-lactamase producing Escherichia coli isolate CUMC241 by disk diffusion method
[33] = tested on: Escherichia coli; assay: Antimicrobial activity against CTX-M-14-like, TEM-1-like beta-lactamase producing Escherichia coli isolate CUMC203 by disk diffusion method in presence of beta-lactamase inhibitor clavulanic acid
[34] = tested on: Escherichia coli; assay: Antimicrobial activity against CMY-2,TEM-2-like beta-lactamase producing Escherichia coli isolate CUMC224 by disk diffusion method in presence of beta-lactamase inhibitor clavulanic acid
[35] = tested on: Escherichia coli; assay: Antimicrobial activity against CTX-M-14, TEM-1-like beta-lactamase producing Escherichia coli isolate CUMC248 by disk diffusion method in presence of beta-lactamase inhibitor clavulanic acid
[36] = tested on: Escherichia coli; assay: Antimicrobial activity against CTX-M-14-like, TEM-1-like beta-lactamase producing Escherichia coli isolate CUMC204 by disk diffusion method
[37] = tested on: Escherichia coli; assay: Antimicrobial activity against CTX-M-14, TEM-1-like beta-lactamase producing Escherichia coli isolate CUMC244 by disk diffusion method in presence of beta-lactamase inhibitor clavulanic acid
[38] = tested on: Klebsiella pneumoniae; assay: Antimicrobial activity against CMY-2,CTX-M-14,TEM-2-like beta-lactamase producing Klebsiella pneumoniae isolate CUMCK2 by disk diffusion method in presence of beta-lactamase inhibitor clavulanic acid
[39] = tested on: Escherichia coli; assay: Antimicrobial activity against CMY-2 beta-lactamase producing Escherichia coli isolate CUMC225 by disk diffusion method
[40] = tested on: Escherichia coli; assay: Antimicrobial activity against CMY-2 beta-lactamase producing Escherichia coli isolate CUMC243 by disk diffusion method in presence of beta-lactamase inhibitor clavulanic acid
[41] = tested on: Escherichia coli; assay: Antimicrobial activity against CTX-M-14, TEM-1 beta-lactamase producing Escherichia coli isolate CUMC174 by disk diffusion method in presence of beta-lactamase inhibitor clavulanic acid
[42] = tested on: Escherichia coli; assay: Antimicrobial activity against CMY-2 beta-lactamase producing Escherichia coli isolate CUMC181 by disk diffusion method in presence of beta-lactamase inhibitor clavulanic acid
[43] = tested on: Escherichia coli; assay: Antimicrobial activity against CTX-M-14-like, TEM-1-like beta-lactamase producing Escherichia coli isolate CUMC233 by disk diffusion method in presence of beta-lactamase inhibitor clavulanic acid
[44] = tested on: Klebsiella pneumoniae; assay: Antimicrobial activity against SHV-12-like, SHV-1-like beta-lactamase producing Klebsiella pneumoniae isolate CUMCK9 by disk diffusion method in presence of beta-lactamase inhibitor clavulanic acid

In the case of `CC(C)(O/N=C(\C(=O)N[C@@H]1C(=O)N2C(C(=O)[O-])=C(C[n+]3ccccc3)CS[C@H]12)c1csc(N)n1)C(=O)O` [CEFTAZIDIME], the “inhibition zone (IZ)” value [1] is reported as 8 mm, the “inhibition zone (IZ)” value [2] is reported as 7 mm and the “inhibition zone (IZ)” value [3] is reported as 16 mm. The “inhibition zone (IZ)” value [4] was 13 mm, the “inhibition zone (IZ)” value [5] was 32 mm and the “inhibition zone (IZ)” value [6] was 8 mm. The “inhibition zone (IZ)” value [7] was 7 mm, the “inhibition zone (IZ)” value [8] was 25 mm and the “inhibition zone (IZ)” value [9] was 27 mm. For the same molecule, the “inhibition zone (IZ)” value [10] was 28 mm, the “inhibition zone (IZ)” value [11] was 11 mm and the “inhibition zone (IZ)” value [12] was 8 mm. The “inhibition zone (IZ)” value [13] was 6 mm, the “inhibition zone (IZ)” value [14] was 29 mm and the “inhibition zone (IZ)” value [15] was 30 mm. For the same molecule, the “inhibition zone (IZ)” value [16] was 30 mm, the “inhibition zone (IZ)” value [17] was 30 mm and the “inhibition zone (IZ)” value [18] was 8 mm. The “inhibition zone (IZ)” value [19] was 29 mm, the “inhibition zone (IZ)” value [20] was 33 mm and the “inhibition zone (IZ)” value [21] was 31 mm. For the same molecule, the “inhibition zone (IZ)” value [22] was 6 mm, the “inhibition zone (IZ)” value [23] was 13 mm and the “inhibition zone (IZ)” value [24] was 6 mm. The “inhibition zone (IZ)” value [25] was 28 mm, the “inhibition zone (IZ)” value [26] was 12 mm and the “inhibition zone (IZ)” value [27] was 13 mm. For the same molecule, the “inhibition zone (IZ)” value [28] was 6 mm, the “inhibition zone (IZ)” value [29] was 26 mm and the “inhibition zone (IZ)” value [30] was 7 mm. The “inhibition zone (IZ)” value [31] was 31 mm, the “inhibition zone (IZ)” value [32] was 28 mm and the “inhibition zone (IZ)” value [33] was 29 mm. For the same molecule, the “inhibition zone (IZ)” value [34] was 13 mm, the “inhibition zone (IZ)” value [35] was 29 mm and the “inhibition zone (IZ)” value [36] was 27 mm. The “inhibition zone (IZ)” value [37] was 29 mm, the “inhibition zone (IZ)” value [38] was 12 mm and the “inhibition zone (IZ)” value [39] was 6 mm. The “inhibition zone (IZ)” value [40] was 12 mm, the “inhibition zone (IZ)” value [41] was 30 mm and the “inhibition zone (IZ)” value [42] was 14 mm. The “inhibition zone (IZ)” value [43] was 32 mm and the “inhibition zone (IZ)” value [44] was 26 mm.

In the case of `CO/N=C(\C(=O)N[C@@H]1C(=O)N2C(C(=O)O)=C(COC(C)=O)CS[C@H]12)c1csc(N)n1` [CEFOTAXIME], the “inhibition zone (IZ)” value [1] is reported as 11 mm, the “inhibition zone (IZ)” value [2] is reported as 15 mm and the “inhibition zone (IZ)” value [3] is reported as 6 mm. The “inhibition zone (IZ)” value [4] was 13 mm, the “inhibition zone (IZ)” value [5] was 30 mm and the “inhibition zone (IZ)” value [6] was 6 mm. For the same molecule, the “inhibition zone (IZ)” value [7] was 8 mm, the “inhibition zone (IZ)” value [8] was 12 mm and the “inhibition zone (IZ)” value [9] was 16 mm. The “inhibition zone (IZ)” value [10] was 17 mm, the “inhibition zone (IZ)” value [11] was 11 mm and the “inhibition zone (IZ)” value [12] was 12 mm. The “inhibition zone (IZ)” value [13] was 18 mm, the “inhibition zone (IZ)” value [14] was 17 mm and the “inhibition zone (IZ)” value [15] was 30 mm. The “inhibition zone (IZ)” value [16] was 30 mm, the “inhibition zone (IZ)” value [17] was 17 mm and the “inhibition zone (IZ)” value [18] was 13 mm. For the same molecule, the “inhibition zone (IZ)” value [19] was 30 mm, the “inhibition zone (IZ)” value [20] was 31 mm and the “inhibition zone (IZ)” value [21] was 18 mm. For the same molecule, the “inhibition zone (IZ)” value [22] was 7 mm, the “inhibition zone (IZ)” value [23] was 11 mm and the “inhibition zone (IZ)” value [24] was 13 mm. For the same molecule, the “inhibition zone (IZ)” value [25] was 15 mm, the “inhibition zone (IZ)” value [26] was 10 mm and the “inhibition zone (IZ)” value [27] was 12 mm. The “inhibition zone (IZ)” value [28] was 13 mm, the “inhibition zone (IZ)” value [29] was 14 mm and the “inhibition zone (IZ)” value [30] was 11 mm. For the same molecule, the “inhibition zone (IZ)” value [31] was 30 mm, the “inhibition zone (IZ)” value [32] was 13 mm and the “inhibition zone (IZ)” value [33] was 32 mm. The “inhibition zone (IZ)” value [34] was 12 mm, the “inhibition zone (IZ)” value [35] was 28 mm and the “inhibition zone (IZ)” value [36] was 15 mm. For the same molecule, the “inhibition zone (IZ)” value [37] was 29 mm, the “inhibition zone (IZ)” value [38] was 16 mm and the “inhibition zone (IZ)” value [39] was 11 mm. The “inhibition zone (IZ)” value [40] was 12 mm, the “inhibition zone (IZ)” value [41] was 30 mm and the “inhibition zone (IZ)” value [42] was 13 mm. The “inhibition zone (IZ)” value [43] was 32 mm and the “inhibition zone (IZ)” value [44] was 32 mm.

— ChEMBL document CHEMBL1275514, “Surveillance of community-based reservoirs reveals the presence of CTX-M, imported AmpC, and OXA-30 beta-lactamases in urine isolates of Klebsiella pneumoniae and Escherichia coli in a U.S. community” (2008)
